molecular target: T1, CCKA (Cavia porcellus, UniProt Q63931); experiment: CCKA binding assay, guinea pig pancreas membranes ([125I]-CCK8(S)); conditions: [125I]-CCK8(S) 200 pM, 0.375 μM PD134,308, 150 min at 21±3° C., pH 7.2, read-out: pKi (Guinea pig pancreas) (converted)
T1 construct: The pancreatata were removed from male guinea-pigs; from tissue; host or cells: pancreas of male Dunkin Hartley guinea pigs, membranes
T1 sequence (Q63931 1-430): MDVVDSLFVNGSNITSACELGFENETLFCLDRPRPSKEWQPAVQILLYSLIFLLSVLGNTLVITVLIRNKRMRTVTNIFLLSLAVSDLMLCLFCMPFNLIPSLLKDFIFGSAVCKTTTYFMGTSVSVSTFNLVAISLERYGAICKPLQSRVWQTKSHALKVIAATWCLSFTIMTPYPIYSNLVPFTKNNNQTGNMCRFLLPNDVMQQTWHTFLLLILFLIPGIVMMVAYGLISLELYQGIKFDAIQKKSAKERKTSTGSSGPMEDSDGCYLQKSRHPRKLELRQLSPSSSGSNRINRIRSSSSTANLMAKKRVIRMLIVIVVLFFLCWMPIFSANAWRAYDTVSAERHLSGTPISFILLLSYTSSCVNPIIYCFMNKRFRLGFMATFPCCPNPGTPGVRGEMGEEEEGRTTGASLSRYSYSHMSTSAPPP
Protocol: The compounds of the examples were also tested in a CCKA binding assay as follows:
The pancreatata were removed from male guinea-pigs (200-300 g; Dunkin Hartley) and placed in ice-cold HEPES buffer (pH 7.2@21±3° C.). The pancreatata were homogenised in 40 ml ice-cold HEPES buffer using a polytron (Brinkmann, PT10, setting 10) 4×1 second. The homogenate was centrifuged at 39,800 g for 15 min at 4° C. The supernatant was discarded and the pellet re-suspended using a Teflon-in-glass homogeniser in 20 volumes of fresh buffer and re-centrifuged as above. The final pellet was re-suspended using a Teflon-in-glass homogeniser to a tissue concentration of 1 mg.ml^-1 (original wet weight), and filtered through 500 μm pore-size Nytex mesh.
The membranes (400 μl; containing 0.375 μM PD134,308) were incubated for 150 minutes at 21±3° C. in a final volume of 0.5 ml with HEPES buffer containing [^125 I]-CCK8 (S) (50 μl; 200 pM) and competing compound. Total and non-specific binding of [^125 I]-CCK8 (S) were defined using 50 μl of buffer and 50 μl of 100 nM L-364,718 respectively. The assay was terminated by rapid filtration through pre-soaked Whatman GF/B filters using a Brandell Cell Harvester. The filters were washed (3×3 ml) with ice-cold 50 mM Tris HCl (pH 7.4 at 4° C.) and bound radioactivity was determined by counting (1 min) in a gamma counter.

| Ki | Compound |
| --- | --- |
| 631 nM | CCC1CCN(C(=O)c2cc3ccccc3[nH]2)CC(=O)N(Cc2ccccc2)c2ccccc21 (centres unmarked) [Example 53, 1-benzyl-7-ethyl-4-(2-indolecarbonyl)-2-oxo-2,3,4,5,6,7-hexahydro-1H-1,4-benzodiazonine] |

molecular target: T2, CCKB receptor (Mus musculus, UniProt P56481); experiment: radioligand binding assay at the CCKB receptor in mouse cortical membranes ([125I]-CCK8S); conditions: [125I]-CCK8S 200 pM, 150 min at 21±3° C., pH 7.2
T2 construct: The cortex was dissected, weighed and homogenised in 40 ml ice-cold buffer; tissue Charles River (animals); host or cells: cerebral cortex of male CD1 mice, membranes
T2 sequence (P56481 1-453): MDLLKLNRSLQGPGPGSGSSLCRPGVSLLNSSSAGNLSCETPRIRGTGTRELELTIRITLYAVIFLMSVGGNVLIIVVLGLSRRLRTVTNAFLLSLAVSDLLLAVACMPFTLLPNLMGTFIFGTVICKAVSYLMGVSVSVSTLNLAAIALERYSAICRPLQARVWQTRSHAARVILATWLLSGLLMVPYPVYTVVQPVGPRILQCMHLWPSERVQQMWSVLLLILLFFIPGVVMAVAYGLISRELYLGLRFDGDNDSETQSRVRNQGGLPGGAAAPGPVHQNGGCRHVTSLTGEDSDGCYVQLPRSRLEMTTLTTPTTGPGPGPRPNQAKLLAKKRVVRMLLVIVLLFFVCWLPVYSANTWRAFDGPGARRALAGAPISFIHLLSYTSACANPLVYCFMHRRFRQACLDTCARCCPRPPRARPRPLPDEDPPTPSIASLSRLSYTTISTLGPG
Protocol: The compounds of the examples were tested for binding at the CCKB receptor in mouse cortical membranes by means of a radioligand binding assay. The procedure was as follows:
The whole brains from male mice (CD1 22-25 g; Charles River) were removed and placed in ice-cold buffer (pH7.2@21±3° C.) of the following composition (mM); 10 HEPES, 130 NaCl, 4.7 KCl, 5 MgCl2, 1 EDTA and containing 0.25 g.1^-1 bacitracin. The cortex was dissected, weighed and homogenised in 40 ml ice-cold buffer using a Teflon-in-glass homogeniser. The homogenate was centrifuged at 39,800 g for 20 min at 4° C., the supernatant discarded and the pellet resuspended by homogenisation in fresh buffer. The homogenate was recentrifuged (39,800 g; 20 min @4° C.) and the final pellet was resuspended in HEPES buffer to give a tissue concentration of 2 mg.ml^-1 (original wet weight).
The membranes (400 μl) were incubated for 150 min at 21±3° C. in a final volume of 0.5 ml with HEPES buffer containing [^125 I]-CCK8S (0.05 ml; 200 pM NEN 2200 Ci.mmol^-1) and competing compound. Total and non-specific binding of [^125 I]-CCK8S were defined using 0.05 ml of buffer and 0.05 ml of […] L-365,260, respectively. The assay was terminated by rapid filtration through pre-soaked Whatman GF/B filters using a Brandell Cell harvester. The filters were washed (3×3 ml) with ice-cold 50 mM Tris-HCl (pH7.4@4° C.) and bound radioactivity determined by counting (1 min.) in a gamma-counter.

| pKi (Mouse cortex) | Compound |
| --- | --- |
| 5.9 | COc1ccc(CN2C(=O)[C@@H](CC34CC5CC(CC(C5)C3)C4)N(C(C)=O)[C@H](C(=O)NCC(=O)O)CC(=O)c3ccccc32)cc1 [Example 75, (3R,5S)-4-acetyl-3-(1-adamantyl)methyl-1-(4-methoxybenzyl)-5-carboxymethylaminocarbonyl-2,7-dioxo-2,3,4,5,6,7-hexahydro-1H-1,4-benzodiazonine] |
| 6.8 | CC(=O)N1[C@H](CC23CC4CC(CC(C4)C2)C3)C(=O)N(Cc2ccccc2F)c2ccccc2C(=O)C[C@H]1C(=O)NCc1nn[nH]n1 [Example 68, (3R,5S)-4-acetyl-3-(1-adamantyl)methyl-1-(2-fluorobenzyl)-5-(5-tetrazolo)methylaminocarbonyl-2,7-dioxo-2,3,4,5,6,7-hexahydro-1H-1,4-benzodiazonine] |
| 4.8 | CC1CCN(C(=O)Nc2cccc(C(=O)O)c2)CC(=O)N(Cc2ccccc2)c2ccccc21 (centres unmarked) [Example 48, 1-benzyl-7-methyl-4-(3-carboxyphenyl)carbamyl-2-oxo-2,3,4,5,6,7-hexahydro-1H-1,4-benzodiazonine] |
| 6.9 | (+/-)-trans-4-acetyl-3-(1-adamantyl)methyl-1-benzyl-5-carboxymethylaminocarbonyl-2,7-dioxo-9-methyl-2,3,4,5,6,7-hexahydro-1H-1,4-benzodiazonine [Example 70] |

same assay, conditions: [125I]-CCK8S 200 pM, 150 min at 21±3° C., pH 7.2, read-out: pKi (Mouse cortex) (converted)

| Ki | Compound |
| --- | --- |
| 126 nM | COc1ccc2c(c1)C(=O)C[C@@H](C(=O)NCC(=O)O)N(C(C)=O)[C@H](CC13CC4CC(CC(C4)C1)C3)C(=O)N2Cc1ccccc1 (relative stereo) [Example 69, (+/-)-trans-4-acetyl-3-(1-adamantyl)methyl-1-benzyl-5-carboxymethylaminocarbonyl-2,7-dioxo-9-methoxy-2,3,4,5,6,7-hexahydro-1H-1,4-benzodiazonine] |
| 398 nM | CC(=O)N1[C@H](CC23CC4CC(CC(C4)C2)C3)C(=O)N(Cc2cccc(Cl)c2)c2ccccc2C(=O)C[C@H]1C(=O)NCC(=O)O [Example 62, (3R,5S)-4-acetyl-3-(1-adamantyl)methyl-1-(3-chlorobenzyl)-5-carboxymethylaminocarbonyl-2,7-dioxo-2,3,4,5,6,7-hexahydro-1H-1,4-benzodiazonine] |
| 3980 nM | Cc1cccc(NC(=O)N2CCCc3ccccc3N(Cc3ccccc3)C(=O)C2)c1 [Example 54, 1-benzyl-4-(3-methylphenyl)carbamyl-2-oxo-2,3,4,5,6,7-hexahydro-1H-1,4-benzodiazonine] |
| 158 nM | CC(=O)N1[C@H](CC23CC4CC(CC(C4)C2)C3)C(=O)N(Cc2ccccc2)c2ccccc2C(=O)C[C@H]1C(=O)NCc1nn[nH]n1 [Example 67, (3R,5S)-4-acetyl-3-(1-adamantyl)methyl-1-benzyl-5-tetrazolomethylaminocarbonyl-2,7-dioxo-2,3,4,5,6,7-hexahydro-1H-1,4-benzodiazonine] |
| 158 nM | CC(=O)N1[C@H](CC23CC4CC(CC(C4)C2)C3)C(=O)N(Cc2ccccc2C)c2ccccc2C(=O)C[C@H]1C(=O)NCC(=O)O [Example 74, (3R,5S)-4-acetyl-3-(1-adamantyl)methyl-1-(2-methylbenzyl)-5-carboxymethylaminocarbonyl-2,7-dioxo-2,3,4,5,6,7-hexahydro-1H-1,4-benzodiazonine] |
| 501 nM | CC(=O)N1[C@H](CC23CC4CC(CC(C4)C2)C3)C(=O)N(Cc2ccccc2F)c2ccccc2C(=O)C[C@H]1C(=O)N[C@@H](C)C(=O)NS(C)(=O)=O [Example 66, (3R,5S)-4-acetyl-3-(1-adamantyl)methyl-1-(2-fluorobenzyl)-5-[(1S)-methanesulphonamidocarboxy]ethylaminocarbonyl-2,7-dioxo-2,3,4,5,6,7-hexahydro-1H-1,4-benzodiazonine] |
| 631 nM | CC(=O)N1[C@H](CC23CC4CC(CC(C4)C2)C3)C(=O)N(Cc2ccc(C)cc2)c2ccccc2C(=O)C[C@H]1C(=O)NCC(=O)O [Example 72, (3R,5S)-4-acetyl-3-(1-adamantyl)methyl-1-(4-methylbenzyl)-5-carboxymethylaminocarbonyl-2,7-dioxo-2,3,4,5,6,7-hexahydro-1H-1,4-benzodiazonine] |
| 398 nM | CC(=O)N1[C@H](CC23CC4CC(CC(C4)C2)C3)C(=O)N(Cc2ccccc2F)c2ccccc2C(=O)C[C@H]1C(=O)NCC(=O)NS(C)(=O)=O [Example 65, (3R,5S)-4-acetyl-3-(1-adamantyl)methyl-1-(2-fluorobenzyl)-5-methanesulphonamidocarboxymethylaminocarbonyl-2,7-dioxo-2,3,4,5,6,7-hexahydro-1H-1,4-benzodiazonine] |
| 2510 nM | CC(=O)N1[C@@H](C(=O)NCC(=O)O)CC(=O)c2ccccc2N(Cc2ccccc2F)C(=O)[C@@H]1CC12CC3CC(CC(C3)C1)C2 [Example 73, (3S ,5R)-4-acetyl-3-(1-adamantyl)methyl-1-(2-fluorobenzyl)-5-carboxymethylaminocarbonyl-2,7-dioxo-2,3,4,5,6,7-hexahydro-1H-1,4-benzodiazonine] |
| 6310 nM | CC1CCN(C(=O)Nc2cc(C(=O)O)cc(C(=O)O)c2)CC(=O)N(Cc2ccccc2)c2ccccc21 (centres unmarked) [Example 47, 1-benzyl-7-methyl-4-(3,5-dicarboxyphenyl)carbamyl-2-oxo-2,3,4,5,6,7-hexahydro-1H-1,4-benzodiazonine] |
| 6310 nM | Cc1cccc(NC(=O)N2CCCc3ccccc3N(CC(=O)OC(C)(C)C)C(=O)C2)c1 [Example 49, 1-tert-butyloxycarbonylmethyl-4-(3-methylphenyl)carbamyl-2-oxo-2,3,4,5,6,7-hexahydro-1H-1,4-benzodiazonine] |
| 1000 nM | CC(=O)N1[C@H](CC23CC4CC(CC(C4)C2)C3)C(=O)N(Cc2cccc(C)c2)c2ccccc2C(=O)C[C@H]1C(=O)NCC(=O)O [Example 71, (3R,5S)-4-acetyl-3-(1-adamantyl)methyl-1-(3-methylbenzyl)-5-carboxymethylaninocarbonyl-2,7-dioxo-2,3,4,5,6,7-hexahydro-1H-1,4-benzodiazonine] |
